Source: patent US20060052459A1, “Antifungal medicaments comprising arylamidine derivatives” (priority 2002, published 2006)
Where two headings read alike, the source gives them in different places.

Experiments:
[1] = system: Aspergillus fumigatus strain IP 864.64; test: In vitro antifungal growth inhibition on microtitre plates (optical density 590 nm), compounds alone or as mixtures (Wadley method); assay type: cell-based; conditions: Aspergillus fumigatus, IP864.64, 48 h, 48 hours at 30° C.; for inhibition at 0.026 µg/mL: dose 0.026 μg/ml; for inhibition at 0.098 µg/mL: dose 0.098 μg/ml; for inhibition at 0.39 µg/mL: dose 0.39 μg/ml; for inhibition at 1.562 µg/mL: dose 1.562 μg/ml; for inhibition at 6.25 µg/mL: dose 6.25 μg/ml; for inhibition at 25 µg/mL: dose 25 μg/ml; for inhibition at 100 µg/mL: dose 100 μg/ml
Procedure: (§1) The following fungi were used for this study: Candida albicans strains IP 48.72 (ATCC 10231) and Aspergillus fumigatus strain IP 864.64 obtained from the Collection Nationale de Cultures de Microorganismes (CNCM) of the Institut Pasteur. The strains are cultured on Yeast Extract-Peptone-Dextrose (YEPD) agar medium comprising 0.5% yeast extract, 0.5% bactopeptone, 2% glucose and 2% agar at 30° C. and in the dark.
(§2) All these compounds were prepared in a DMSO solution at a final concentration of 100 mg/ml. The stock solutions are stored at −20° C. up to the time of use.
(§3) The trials are carried out in RPMI 1640 medium with no sodium bicarbonate, but with L-glutamine buffered with 0.165 mol per litre of 3-[N-morpholino]propanesulphonic acid (MOPS), enriched (<>) or otherwise (<>) with 2% glucose. The pH of this medium is adjusted to 7.0. The medium is sterilized by filtration (0.22 μm) and stored at 4° C. up to the time of use.
(§4) All the antifungal tests are carried out on microtitre plates. The initial suspensions of spores are prepared in a sterile solution containing 0.85% NaCl, supplemented with Tween 80 at 0.01%. These initial suspensions are then diluted in the culture medium (RPMI 1640 enriched or otherwise with 2% glucose) to a final concentration of 10^4 spores per ml. The measurements of viability of each inoculum are verified by subcultures of a volume of 300 μl on YEPD agar medium.
(§5) The antifungal compounds are tested in a range of concentrations ranging from 0.026 to 100 μg of active ingredient/ml. These antifungal compounds are then diluted in RPMI 1640 medium enriched or otherwise with 2% glucose. A final DMSO concentration of 0.2% is used throughout the measurements. Each trial is carried out on a series of dilutions of antifungal compounds, in duplicate. The antifungal dilutions (0.1 ml) and the fungal inoculum (0.1 ml) are added to each of the wells of the microtitre plate. The plates are then read with a spectrophotometer (ELX 800UV Bio-Tek Instruments, Inc) at a wavelength of 590 nm. The plates are read immediately after (t=0) and after 48 hours' incubation at 30° C. and in the dark. The optical density values obtained are correlated with fungal growth between the times t=0 and t=48 hours. The optical density values are used to calculate the percentage inhibition of growth for each concentration of antifungals by comparison with the control. The values are then used to plot a dose-response curve and the EC50 value is determined for each fungus and each compound with the aid of the Grafit 5.0® software (Erithacus software Ltd).
(§6) The method which was used to measure the type of interaction existing between the antifungal compounds in the form of mixtures is the Wadley method.
(§7) In the Wadley approach, the dose-response curve for each of the compounds A and B, and for the mixture AB, is constructed. The EC50 is calculated for each compound taken individually and for the mixture. If a and b are the absolute quantities of the compounds A and B in the mixture (a=1, b=1, a+b=2 under our conditions), the expected effective concentration (EC50exp) may be calculated in the following manner: EC50exp=(a+b)/[a/EC50A)+b/(EC50B)
(§8) The Wadley approach may be used to estimate the type of interaction existing between the fungal compounds, regardless of their concentration. Its reliability is not dependent on the percentage inhibition. The type of interaction between two compounds is given by the level of interaction (LI) which corresponds to the ratio between the expected effective concentration (EC50exp) and that observed (EC50obs) of the mixture. The nature of the interaction obtained by the Wadley formula is presented in Table 1 (see U. Gisi, Synergistic interaction in fungicide mixtures, 1996. Phytopathology 86, 1273-1279) below.
(§9) The experimental conditions are the same as previously described.

[2] = system: Candida albicans strains IP 48.72 (ATCC 10231); test: as above; assay type: cell-based; conditions: Candida albicans, ATCC10231, 48 h, 48 hours at 30° C.; for inhibition at 0.026 µg/mL: dose 0.026 μg/ml; for inhibition at 0.098 µg/mL: dose 0.098 μg/ml; for inhibition at 0.39 µg/mL: dose 0.39 μg/ml; for inhibition at 1.562 µg/mL: dose 1.562 μg/ml; for inhibition at 6.25 µg/mL: dose 6.25 μg/ml; for inhibition at 25 µg/mL: dose 25 μg/ml; for inhibition at 100 µg/mL: dose 100 μg/ml; for EC50: read-out: EC50
Procedure: as §1, §2, §3, §4, §5, §6, §7, §8, §9

[3] = second study, strain IP 864.64, RPMI 1640 medium enriched with 2% glucose, read-out: EC50
[4] = minimal RPMI 1640 medium (MM), used alone
[5] = rich RPMI 1640 medium (RM), used alone
[6] = second study, strain IP 48.72, RPMI 1640 medium enriched with 2% glucose

| SMILES | inhibition at 0.026 µg/mL ([1]; minimal RPMI 1640 medium (MM)) | inhibition at 0.026 µg/mL ([1]; rich RPMI 1640 medium (RM)) | inhibition at 0.098 µg/mL ([1]; minimal RPMI 1640 medium (MM)) | inhibition at 0.098 µg/mL ([1]; rich RPMI 1640 medium (RM)) | inhibition at 0.39 µg/mL ([1]; minimal RPMI 1640 medium (MM)) | inhibition at 0.39 µg/mL ([1]; rich RPMI 1640 medium (RM)) | inhibition at 1.562 µg/mL ([1]; minimal RPMI 1640 medium (MM)) | inhibition at 1.562 µg/mL ([1]; rich RPMI 1640 medium (RM)) | inhibition at 6.25 µg/mL ([1]; minimal RPMI 1640 medium (MM)) | inhibition at 6.25 µg/mL ([1]; rich RPMI 1640 medium (RM)) | inhibition at 25 µg/mL ([1]; minimal RPMI 1640 medium (MM)) | inhibition at 25 µg/mL ([1]; rich RPMI 1640 medium (RM)) | inhibition at 100 µg/mL ([1]; minimal RPMI 1640 medium (MM)) | inhibition at 100 µg/mL ([1]; rich RPMI 1640 medium (RM)) | EC50 [1, 3] | inhibition at 0.026 µg/mL ([2]; minimal RPMI 1640 medium (MM)) | inhibition at 0.026 µg/mL ([2]; rich RPMI 1640 medium (RM)) | inhibition at 0.098 µg/mL ([2]; minimal RPMI 1640 medium (MM)) | inhibition at 0.098 µg/mL ([2]; rich RPMI 1640 medium (RM)) | inhibition at 0.39 µg/mL ([2]; minimal RPMI 1640 medium (MM)) | further results |
| --- | --- | --- | --- | --- | --- | --- | --- | --- | --- | --- | --- | --- | --- | --- | --- | --- | --- | --- | --- | --- | --- |
| OC(Cn1cncn1)(Cn1cncn1)c1ccc(F)cc1F [Compound II.1, fluconazole] | 4.8% | 11.2% | 4.8% | 20.7% | 5.8% | 25.9% | 8.7% | 27.6% | 7.7% | 28.4% | 23.1% | 48.3% | 41.4% | 46.6% | 125 µg/mL | 2.1% | 11.1% | 9.7% | 32.5% | 38.5% | EC50 ([1]; minimal RPMI 1640 medium (MM), extrapolated with Grafit 5.0, read-out: EC50 (extrapolated from the dose-response curves)): 575 µg/mL; EC50 ([1]; rich RPMI 1640 medium (RM), extrapolated with Grafit 5.0, read-out: EC50 (extrapolated from the dose-response curves)): 125 µg/mL; inhibition at 0.39 µg/mL ([2]; rich RPMI 1640 medium (RM)): 72.6%; inhibition at 1.562 µg/mL ([2]; minimal RPMI 1640 medium (MM)): 64.7%; inhibition at 1.562 µg/mL ([2]; rich RPMI 1640 medium (RM)): 86.8%; inhibition at 6.25 µg/mL ([2]; minimal RPMI 1640 medium (MM)): 77.7%; inhibition at 6.25 µg/mL ([2]; rich RPMI 1640 medium (RM)): 94%; inhibition at 25 µg/mL ([2]; minimal RPMI 1640 medium (MM)): 81.9%; inhibition at 25 µg/mL ([2]; rich RPMI 1640 medium (RM)): 95.3%; inhibition at 100 µg/mL ([2]; minimal RPMI 1640 medium (MM)): 91.6%; inhibition at 100 µg/mL ([2]; rich RPMI 1640 medium (RM)): 36.1%; EC50 [2, 4]: 0.96 µg/mL; EC50 [2, 5]: 0.19 µg/mL; EC50 [2, 6]: 0.354 µg/mL |
| CCC(C)n1ncn(-c2ccc(N3CCN(c4ccc(OCC5COC(Cn6cncn6)(c6ccc(Cl)cc6Cl)O5)cc4)CC3)cc2)c1=O (centres unmarked) [Compound II.2, itraconazole] | 2.2% | 18.6% | 31.8% | 47.5% | 49.3% | 88.6% | 99.6% | 99.2% | 100% | 100% | 100% | 100% | 99% | 100% | 0.187 µg/mL | 58.1% | 44.7% | 75.4% | 85.1% | 78.2% | EC50 ([1]; minimal RPMI 1640 medium (MM), used alone, read-out: EC50): 0.27 µg/mL; EC50 ([1]; rich RPMI 1640 medium (RM), used alone, read-out: EC50): 0.27 µg/mL; inhibition at 0.39 µg/mL ([2]; rich RPMI 1640 medium (RM)): 86.2%; inhibition at 1.562 µg/mL ([2]; minimal RPMI 1640 medium (MM)): 74.6%; inhibition at 1.562 µg/mL ([2]; rich RPMI 1640 medium (RM)): 85.1%; inhibition at 6.25 µg/mL ([2]; minimal RPMI 1640 medium (MM)): 78.6%; inhibition at 6.25 µg/mL ([2]; rich RPMI 1640 medium (RM)): 86.2%; inhibition at 25 µg/mL ([2]; minimal RPMI 1640 medium (MM)): 87.9%; inhibition at 25 µg/mL ([2]; rich RPMI 1640 medium (RM)): 95.2%; inhibition at 100 µg/mL ([2]; minimal RPMI 1640 medium (MM)): 95.2%; inhibition at 100 µg/mL ([2]; rich RPMI 1640 medium (RM)): 95.2%; EC50 [2, 4]: 0.022 µg/mL; EC50 [2, 5]: 0.017 µg/mL; EC50 [2, 6]: 0.082 µg/mL |
